Assay results reported in BindingDB's records for doi:10.1021/acs.biochem.5b00106 (Louis Stokes Cleveland Veterans Affairs Medical Center, 2015).

Key:
[1] = target: VIM-24 (Klebsiella pneumoniae, UniProt E0AFT6); assay: Direct Competition Assay
Protocol: (§1) The Ki for each inhibitor was determined by direct competition assays under steady-state conditions. The initial velocity was measured in the presence of a constant concentration of enzyme (3 nM for VIM-2 and 4 nM for VIM-24) with increasing concentrations of inhibitor (5−60 μM) against a fixed concentration (5KM) of the indicator substrate, NCF, as previously described. The reactionswere started by addition of VIM-2 or VIM-24 to substrate or to mixtures of substrate and inhibitor.

[2] = target: Metallo-beta-lactamase VIM-2 (Klebsiella pneumoniae, UniProt Q3Y6Q3); assay: Direct Competition Assay
Protocol: as §1

## CC1(C)S[C@H]2CS[C@H](CS)N2[C@@H]1C(=O)O [L-VC26]
[1]
  Ki: 4.9 µM
[2]
  Ki: 3.8 µM

## CC1(C)S[C@@H]2CS[C@@H](CS)N2[C@H]1C(=O)O [D-VC26]
[1]
  Ki: 12 µM
[2]
  Ki: 14 µM

## O=C(O)[C@H]1CS[C@@H]2CS[C@@H](CS)N12 [D-CS319]
[1]
  Ki: 11 µM
[2]
  Ki: 5.4 µM

## O=C(O)[C@@H]1CS[C@H]2CS[C@H](CS)N21 [L-CS319]
[1]
  Ki: 6 µM
[2]
  Ki: 3.7 µM
